Patent US4450165A, “Dihydropyridine compounds” (Yoshitomi Pharmaceutical Industries, Ltd., priority 1981, dated 1984)

Assays:
[1] = tested on: coronary blood flow (left coronary artery); assay: Effect on coronary blood flow; format: in vivo, mongrel dogs; conditions: anesthetized dogs; for ED50 (effective dose in blood flow): injected into afferent cannula, increase in blood flow by nifedipine 10 μg taken as 100%; for Duration (time for which the half maximum response remained): coronary blood flow
Protocol: The perfused flow was measured by means of an electromagnitic flow-meter. The test compound was dissolved in an aqueous solution containing 15% ethanol and 15% polyethylene glycol, and injected into the afferent cannula. […] The duration was measured as the time for which the half maximum response remained.

[2] = tested on: vertebral blood flow (right vertebral artery); assay: Effect on vertebral blood flow; format: in vivo, mongrel dogs; conditions: anesthetized dogs; for ED100 (effective dose in blood flow): injected into afferent tube, increase in blood flow by papaverine 100 μg taken as 100%; for Duration (time for which the half maximum response remained): vertebral blood flow
Protocol: Under the artificial ventilation, the right vertebral artery was perfused with the arterial blood from the left carotid artery through a short bypass. The perfused flow was measured by means of an electromagnetic flow-meter. The test compound was dissolved in an aqueous solution containing 0.1% dimethyl sulfoxide and 0.01% polyoxyethylene hydrogenated castor oil (cremophor EL®), and injected into the afferent tube. […] The duration was measured as the time for which the half maximum response remained.

[3] = tested on: spontaneously hypertensive rats; assay: Hypotensive activity (systolic blood pressure, indirect tail cuff method); format: in vivo; conditions: Rattus norvegicus; oral; before and at 1, 3, 5 and 7 hours; five male spontaneously hypertensive rats; from dose response curve; read-out: ED30 (effective dose which showed the maximum hypotension by 30 mmHg)
Protocol: Five male spontaneously hypertensive rats were used for each experiment. Systolic blood pressure was determined using an indirect tail cuff method before and at 1, 3, 5 and 7 hours following the oral administration of the test compound.

| Compound | ED50 (effective dose in blood flow) [1] [µg] | ED100 (effective dose in blood flow) [2] [µg] | ED (30 mmHg) [3] [mg/kg] | Duration (time for which the half maximum response remained) [2] [min] | Duration (time for which the half maximum response remained) [1] [min] |
| --- | --- | --- | --- | --- | --- |
| COC(=O)C1=C(C)NC(C)=C(C(=O)OC)C1c1ccccc1[N+](=O)[O-] [Nifedipine] | 0.5 |  |  |  |  |
| COc1ccc(Cc2nccc3cc(OC)c(OC)cc23)cc1OC [Papaverine, reference compound] |  | 100 |  |  |  |
| COC(=O)C1=C(C)NC(C)=C(C(=O)OCCN(C)Cc2ccccc2)C1c1cccc([N+](=O)[O-])c1.Cl (stereo not drawn) [Nicardipine, 2,6-Dimethyl-4-(m-nitrophenyl)-1,4-dihydropyridine-3,5-dicarboxylic acid-3-methylester-5-[2-(N-benzyl-N-methylamino)ethyl]ester hydrochloride, reference compound] | 0.5 | 0.4 | 5 | 1.0 | 3.0 |
| COC(=O)C1=C(C)NC(C)=C(C(=O)OC(CN(C)Cc2ccccc2)c2cccs2)C1c1cccc([N+](=O)[O-])c1.Cl (stereo not drawn) [Test Compound B, 2,6-Dimethyl-4-(m-nitrophenyl)-1,4-dihydropyridine-3,5-dicarboxylic acid-3-methylester-5-[2-(N-benzyl-N-methylamino)-1-(2-thienyl)ethyl]ester hydrochloride] |  | 1.8 | 1 | 22.5 |  |
| COC(=O)C1=C(C)NC(C)=C(C(=O)OC(CN(C)Cc2ccccc2)c2ccco2)C1c1cccc([N+](=O)[O-])c1.Cl (stereo not drawn) [Test Compound A, 2,6-Dimethyl-4-(m-nitrophenyl)-1,4-dihydropyridine-3,5-dicarboxylic acid-3-methylester-5-[2-(N-benzyl-N-methylamino)-1-(2-furyl)ethyl]ester hydrochloride] | 1.5 | 1.0 | 1.3 | 11.0 | 15.0 |
